Data on two compounds can be found in patent US7750145B2, “1-substituted-3-β-D-glucopyranosylated nitrogenous hetero-cyclic compounds and medicines containing the same” (Kissei Pharmaceutical Co., Ltd., priority 2004, dated 2010).

pIC50: −log10 of the molar value.

One experiment has as its target T1, human SGLT1 (Homo sapiens, UniProt P13866).
T1 construct: expressed in transfected cells; host or cells: COS-7 cells, transient lipofection of pcDNA3.1(-) vector
T1 sequence (P13866 1-664): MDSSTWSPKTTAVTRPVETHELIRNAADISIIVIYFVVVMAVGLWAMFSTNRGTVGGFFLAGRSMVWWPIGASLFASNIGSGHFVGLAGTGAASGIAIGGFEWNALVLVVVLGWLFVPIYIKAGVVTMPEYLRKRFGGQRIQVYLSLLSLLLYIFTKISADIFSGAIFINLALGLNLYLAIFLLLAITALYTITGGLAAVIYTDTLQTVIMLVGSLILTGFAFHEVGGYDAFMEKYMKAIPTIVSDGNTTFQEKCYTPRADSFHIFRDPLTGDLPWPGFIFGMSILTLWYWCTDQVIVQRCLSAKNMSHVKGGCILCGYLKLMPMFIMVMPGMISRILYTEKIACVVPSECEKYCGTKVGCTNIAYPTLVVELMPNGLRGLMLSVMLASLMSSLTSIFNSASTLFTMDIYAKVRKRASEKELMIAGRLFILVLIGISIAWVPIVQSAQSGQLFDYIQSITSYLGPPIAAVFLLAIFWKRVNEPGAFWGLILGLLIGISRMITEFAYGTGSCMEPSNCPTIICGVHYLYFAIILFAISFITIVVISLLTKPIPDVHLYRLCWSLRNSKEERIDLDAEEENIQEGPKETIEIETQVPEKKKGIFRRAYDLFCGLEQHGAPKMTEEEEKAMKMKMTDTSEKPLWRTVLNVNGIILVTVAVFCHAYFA
Kind of experiment: Inhibition of methyl-α-D-glucopyranoside uptake in COS-7 cells expressing human SGLT1. The experiment is classed as cell-based. Conditions: 14C α-MG uptake, 1 mM α-MG, transfected COS-7 cells, 1 hour at 37° C.; read-out: hSGLT1 IC50. The method, then:
(§1) Assay for Inhibitory Effects on Human SGLT Activity
1) Cloning and Construction of the Vector Expressing Human SGLT1
The cDNA library was prepared for PCR amplification by reverse transcription from total RNA derived from human small intestine (Ori gene) using oligo-dT as a primer. Using this cDNA library as a template, the DNA fragment coding 1 to 2005 bp of human SGLT1 (ACCESSION: M24847), which was reported by Hediger et al., was amplified by PCR method and inserted into the multi-cloning site of pcDNA3.1(−) (Invitrogen). The DNA sequence inserted was perfectly matched to the previously reported sequence.
(§2) 3) Preparation of the Cells Expressing Human SGLT1 or SGLT2 […]
(§3) A mixture of non-labeled (Sigma) and ^14C-labeled α-MG (Amersham Pharmacia Biotech) was added to the uptake buffer (pH 7.4; containing 140 mM sodium chloride, 2 mM potassium chloride, 1 mM calcium chloride, 1 mM magnesium chloride, 10 mM 2-[4-(2-hydroxyethyl)-1-piperazinyl]ethane sulfonic acid and 5 mM tris(hydroxymethyl)aminomethane) at the final concentration of 1 mM. […] Radioactivity was measured by means of micro-scintillation counter TopCount (Packard). One hundred % was set to the difference between the uptake in the control group and the basal uptake, and the uptake of methyl α-D-glucopyranoside at each drug concentration was calculated. […]

The target in a further experiment is T2, human SGLT2 (Homo sapiens, UniProt P31639).
T2 construct: expressed in transfected cells; host or cells: COS-7 cells, transient lipofection of pcDNA3.1(-) vector
T2 sequence (P31639 1-672): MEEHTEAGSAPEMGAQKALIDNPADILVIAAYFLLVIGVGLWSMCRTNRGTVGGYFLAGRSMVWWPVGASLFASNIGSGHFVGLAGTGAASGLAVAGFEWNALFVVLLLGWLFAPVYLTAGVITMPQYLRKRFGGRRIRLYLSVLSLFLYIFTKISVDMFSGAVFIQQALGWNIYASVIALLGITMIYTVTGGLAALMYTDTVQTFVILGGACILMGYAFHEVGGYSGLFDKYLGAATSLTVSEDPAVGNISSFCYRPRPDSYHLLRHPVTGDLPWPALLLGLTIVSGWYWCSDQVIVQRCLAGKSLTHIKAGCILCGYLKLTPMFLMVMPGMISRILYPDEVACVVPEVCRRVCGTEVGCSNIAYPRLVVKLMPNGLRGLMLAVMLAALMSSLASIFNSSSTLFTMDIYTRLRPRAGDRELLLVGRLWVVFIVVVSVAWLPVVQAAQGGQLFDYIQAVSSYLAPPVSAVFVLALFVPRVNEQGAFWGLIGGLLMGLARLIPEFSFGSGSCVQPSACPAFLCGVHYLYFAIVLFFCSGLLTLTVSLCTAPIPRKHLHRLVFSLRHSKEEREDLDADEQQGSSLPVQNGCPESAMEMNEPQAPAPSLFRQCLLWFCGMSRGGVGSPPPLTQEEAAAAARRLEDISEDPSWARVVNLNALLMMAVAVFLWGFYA
Kind of experiment: Inhibition of methyl-α-D-glucopyranoside uptake in COS-7 cells expressing human SGLT2. The experiment is classed as cell-based. Conditions: 14C α-MG uptake, 1 mM α-MG, transfected COS-7 cells, 1 hour at 37° C.; read-out: hSGLT2 IC50. The method, then:
as §1
2) Cloning and Construction of the Vector Expressing Human SGLT2
The cDNA library was prepared for PCR amplification by reverse transcription from total RNA derived from human kidney (Ori gene) using oligo-dT as a primer. Using this cDNA library as a template, the DNA fragment coding 2 to 2039 bp of human SGLT2 (ACCESSION: M95549, M95299), which was reported by R. G. Wells et al., was amplified by PCR method and inserted into the multi-cloning site of pcDNA3.1(−) (Invitrogen). The DNA sequence inserted was perfectly matched to the previously reported sequence.
as §2, §3

One may read the pIC50 as the negative decadic logarithm of the IC50, by convention in mol/L. With `COc1ccc(Cn2cc([C@@H]3O[C@H](CO)[C@@H](O)[C@H](O)[C@H]3O)c3cccc(C)c32)cc1` [Example 6], at human SGLT1, the negative-log IC50 (pIC50) was 7.08.
As for `COc1ccc(Cn2cc([C@@H]3O[C@H](CO)[C@@H](O)[C@H](O)[C@H]3O)c3cc(C)ccc32)cc1` [Example 8], the pIC50 at human SGLT2 was 8.22.
